This is an account of results in US20240058347A1, “DOSAGES FOR HDAC TREATMENT WITH REDUCED SIDE EFFECTS” (VIRACTA THERAPEUTICS, INC., priority 2019, published 2024).

For series [1] the following is noted: 30 mg twice weekly; cited from earlier work.
The conditions of series [2]: 1,000 mg/m^2 IV once daily on days 1 to 5 of a 21-day cycle; cited from earlier work.
For the next series, the target named is HDAC4 (Homo sapiens, UniProt P56524). The experiment in a line: in vitro HDAC inhibition assay (fluorescence), HDAC4. To be noted: read-out: Percentage Inhibition. In kind it is biochemical. The procedure: (§1) Briefly, all of the compounds are dissolved in DMSO. A series of dilutions of the compounds were prepared with 10% DMSO in HDAC assay buffer and 5 μl of the dilution was added to a 50 μl reaction so that the final concentration of DMSO is 1% in all of reactions. The compounds were pre-incubated in duplicate at RT for 1 hour in a mixture containing HDAC assay buffer, 5 μg BSA, HDAC enzyme (see Table 7) and a the particular HDACi. After 1 hour, the enzymatic reactions were initiated by the addition of HDAC substrate (BPS Bioscience) to a final concentration of 10 μM or 2 μM. The enzymatic reaction proceeded for 30 minutes at 37° C.
Chain of HDAC4 (P56524 whole entry): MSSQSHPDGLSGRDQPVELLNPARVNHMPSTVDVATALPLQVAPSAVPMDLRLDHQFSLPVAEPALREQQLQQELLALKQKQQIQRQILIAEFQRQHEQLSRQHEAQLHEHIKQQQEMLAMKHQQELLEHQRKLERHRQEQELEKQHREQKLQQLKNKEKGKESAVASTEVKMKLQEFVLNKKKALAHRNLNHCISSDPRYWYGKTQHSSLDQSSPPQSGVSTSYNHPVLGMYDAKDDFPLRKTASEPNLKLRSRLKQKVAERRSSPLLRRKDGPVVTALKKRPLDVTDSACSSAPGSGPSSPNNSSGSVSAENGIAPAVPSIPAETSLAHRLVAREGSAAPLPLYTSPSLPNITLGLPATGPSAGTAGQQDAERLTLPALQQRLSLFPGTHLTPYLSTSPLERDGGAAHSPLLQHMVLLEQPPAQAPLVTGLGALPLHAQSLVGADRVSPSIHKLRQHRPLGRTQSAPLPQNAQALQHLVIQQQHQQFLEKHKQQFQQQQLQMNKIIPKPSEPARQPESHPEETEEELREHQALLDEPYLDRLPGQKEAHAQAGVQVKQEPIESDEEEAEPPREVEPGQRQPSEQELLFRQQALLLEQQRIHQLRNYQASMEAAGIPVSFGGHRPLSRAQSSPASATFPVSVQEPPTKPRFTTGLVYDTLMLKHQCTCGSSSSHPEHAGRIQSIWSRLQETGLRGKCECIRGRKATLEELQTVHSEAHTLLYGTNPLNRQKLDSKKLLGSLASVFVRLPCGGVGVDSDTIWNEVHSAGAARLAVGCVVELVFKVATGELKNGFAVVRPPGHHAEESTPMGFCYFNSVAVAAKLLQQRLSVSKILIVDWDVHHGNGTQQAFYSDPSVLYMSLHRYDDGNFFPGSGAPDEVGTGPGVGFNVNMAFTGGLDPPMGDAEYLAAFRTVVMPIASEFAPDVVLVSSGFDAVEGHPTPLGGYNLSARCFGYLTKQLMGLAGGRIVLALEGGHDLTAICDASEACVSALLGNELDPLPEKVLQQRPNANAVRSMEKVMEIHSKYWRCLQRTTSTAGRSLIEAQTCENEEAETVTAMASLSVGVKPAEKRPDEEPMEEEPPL
(§2) HDAC activity assays were performed in duplicates at each concentration. The fluorescent intensity data were analyzed using the computer software, Graphpad Prism. In the absence of the compound, the fluorescent intensity (Ft) in each data set was defined as 100% activity. In the absence of HDAC, the fluorescent intensity (Fb) in each data set was defined as 0% activity. The percent activity in the presence of each compound was calculated according to the following equation: % activity=(F−Fb)/(Ft−Fb), where F=the fluorescent intensity in the presence of the compound. […]

For another series, the target named is HDAC9 (Homo sapiens, UniProt Q9UKV0). The experiment in a line: in vitro HDAC inhibition assay (fluorescence), HDAC9. The series is classed as biochemical. Particulars: read-out: Percentage Inhibition. The procedure:
as §1, §2

The next series deals with T1, HDAC7 (Homo sapiens, UniProt Q8WUI4).
T1 sequence (Q8WUI4 1-952): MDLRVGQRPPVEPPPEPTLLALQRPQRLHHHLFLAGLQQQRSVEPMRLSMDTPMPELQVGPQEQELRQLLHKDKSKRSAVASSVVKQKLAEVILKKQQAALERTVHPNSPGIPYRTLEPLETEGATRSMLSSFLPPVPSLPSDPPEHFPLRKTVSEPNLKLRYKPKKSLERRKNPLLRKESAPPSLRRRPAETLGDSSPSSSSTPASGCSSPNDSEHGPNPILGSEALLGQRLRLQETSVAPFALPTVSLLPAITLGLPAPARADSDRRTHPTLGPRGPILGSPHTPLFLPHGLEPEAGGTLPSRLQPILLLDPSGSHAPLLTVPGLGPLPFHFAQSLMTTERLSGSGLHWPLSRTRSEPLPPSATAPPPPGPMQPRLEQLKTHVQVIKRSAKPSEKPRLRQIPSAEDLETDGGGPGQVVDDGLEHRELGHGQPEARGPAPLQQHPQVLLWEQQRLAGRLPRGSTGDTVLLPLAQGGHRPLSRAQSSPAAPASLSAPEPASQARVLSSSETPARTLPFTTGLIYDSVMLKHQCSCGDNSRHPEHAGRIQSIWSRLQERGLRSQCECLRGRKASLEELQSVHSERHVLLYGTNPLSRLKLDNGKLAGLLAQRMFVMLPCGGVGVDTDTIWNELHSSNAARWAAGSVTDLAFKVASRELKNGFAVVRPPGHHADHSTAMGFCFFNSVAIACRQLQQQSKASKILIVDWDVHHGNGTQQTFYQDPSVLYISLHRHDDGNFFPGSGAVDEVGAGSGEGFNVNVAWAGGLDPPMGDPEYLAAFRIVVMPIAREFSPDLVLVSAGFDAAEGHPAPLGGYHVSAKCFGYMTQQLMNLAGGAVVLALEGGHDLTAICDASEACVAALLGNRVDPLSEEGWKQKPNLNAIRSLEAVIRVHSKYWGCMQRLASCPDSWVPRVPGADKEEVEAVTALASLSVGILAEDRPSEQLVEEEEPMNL
The experiment in a line: in vitro HDAC inhibition assay (fluorescence), HDAC7. The series is classed as biochemical. Particulars: read-out: Percentage Inhibition. Here is the method:
as §1, §2

For the next series, the target named is T2, HDAC11 (Homo sapiens, UniProt Q96DB2).
T2 sequence (Q96DB2 1-347): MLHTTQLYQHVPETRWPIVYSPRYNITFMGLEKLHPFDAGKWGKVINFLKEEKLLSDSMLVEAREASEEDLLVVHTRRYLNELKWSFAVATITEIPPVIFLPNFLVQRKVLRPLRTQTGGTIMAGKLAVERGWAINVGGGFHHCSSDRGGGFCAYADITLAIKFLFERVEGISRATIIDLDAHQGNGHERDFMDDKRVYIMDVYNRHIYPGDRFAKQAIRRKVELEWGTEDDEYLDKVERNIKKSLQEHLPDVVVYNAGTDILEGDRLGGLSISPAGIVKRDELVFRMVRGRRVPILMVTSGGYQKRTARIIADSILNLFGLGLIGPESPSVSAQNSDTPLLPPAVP
The experiment in a line: in vitro HDAC inhibition assay (fluorescence), HDAC11. In kind it is biochemical. Particulars: read-out: Percentage Inhibition. The procedure:
as §1, §2

The conditions of series [3]: in vivo; cited from earlier work.

As usually defined, the inhibition is the share of the control response that was lost under treatment.

Chain of HDAC9 (Q9UKV0 whole entry): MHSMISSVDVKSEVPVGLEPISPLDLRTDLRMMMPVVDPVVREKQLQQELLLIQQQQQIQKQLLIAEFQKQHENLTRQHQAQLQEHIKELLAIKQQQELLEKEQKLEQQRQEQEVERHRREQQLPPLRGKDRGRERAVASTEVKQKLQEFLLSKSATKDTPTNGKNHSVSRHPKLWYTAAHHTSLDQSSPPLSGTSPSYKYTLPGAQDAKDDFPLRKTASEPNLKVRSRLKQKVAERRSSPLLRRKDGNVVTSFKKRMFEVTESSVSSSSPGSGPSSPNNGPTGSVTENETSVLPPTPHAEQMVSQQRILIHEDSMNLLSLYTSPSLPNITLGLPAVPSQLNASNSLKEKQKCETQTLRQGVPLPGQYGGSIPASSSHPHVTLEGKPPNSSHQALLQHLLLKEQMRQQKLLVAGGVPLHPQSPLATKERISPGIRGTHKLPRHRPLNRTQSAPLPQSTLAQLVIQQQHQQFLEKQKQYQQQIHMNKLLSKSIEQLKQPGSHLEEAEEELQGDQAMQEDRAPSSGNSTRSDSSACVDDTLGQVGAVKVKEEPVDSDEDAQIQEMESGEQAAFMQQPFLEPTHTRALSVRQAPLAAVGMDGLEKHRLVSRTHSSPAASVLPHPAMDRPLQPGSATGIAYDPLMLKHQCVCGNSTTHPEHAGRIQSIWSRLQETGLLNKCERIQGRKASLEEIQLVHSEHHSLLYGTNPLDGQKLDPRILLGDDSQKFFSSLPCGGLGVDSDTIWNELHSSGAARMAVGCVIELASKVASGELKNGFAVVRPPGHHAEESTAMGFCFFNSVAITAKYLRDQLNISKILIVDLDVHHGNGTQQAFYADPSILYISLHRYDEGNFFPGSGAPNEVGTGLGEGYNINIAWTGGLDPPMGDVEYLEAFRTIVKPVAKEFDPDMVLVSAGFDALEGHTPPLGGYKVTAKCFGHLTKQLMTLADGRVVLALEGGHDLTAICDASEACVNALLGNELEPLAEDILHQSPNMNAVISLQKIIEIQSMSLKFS

Take `Nc1cc(F)ccc1NC(=O)c1ccc(CNC(=O)/C=C/c2cccnc2)cc1` [Chidamide, chidamide]: the SAE rate in series [1] is 5%.
Regarding `O=C(/C=C/c1cccc(S(=O)(=O)Nc2ccccc2)c1)NO` [belinostat], in series [2], the “Grade 3 or 4 adverse effect rate” value is given as 47%.
For the compound `C/C=C1\NC(=O)[C@H]2CSSCC/C=C/[C@H](CC(=O)N[C@H](C(C)C)C(=O)N2)OC(=O)[C@H](C(C)C)NC1=O` [FK228, romidepsin, reference compound], the inhibition at 100 µM at HDAC4, on HDAC9, on HDAC7 and on HDAC11 was less than 17% in each case.
Turning to `Nc1ccccc1NC(=O)c1ccc(CNC(=O)OCc2cccnc2)cc1` [MS-275, entinostat], the elimination half-life result in series [3] was “approximately 36 hours”.
